The values below come from paper PMC9239083, “C6 Hydroxymethyl-Substituted Carbapenem MA-1-206 Inhibits the Major Acinetobacter baumannii Carbapenemase OXA-23 by Impeding Deacylation” (mBio, 2022).

This test addresses OXA-23 (Acinetobacter baumannii, UniProt Q9L4P2). Put plainly: X-ray crystal structures (seven soak time points); Ki by nitrocefin competition kinetics with purified enzyme. It is filed as biochemical. From the text: X-ray crystal structures (seven soak time points); Ki by nitrocefin competition kinetics with purified enzyme on OXA-23 | The compound is covalently attached to the Ser79 side chain and anchored by six hydrogen bonds.

The structures appear in SMILES notation.

As usually defined, the Ki is a dissociation constant, usually derived from enzyme kinetics or from competition with a known ligand. The low end stands for a stronger hold on the target, the high end for a looser hold on the target.

OXA-23, sequence (Q9L4P2 18-273): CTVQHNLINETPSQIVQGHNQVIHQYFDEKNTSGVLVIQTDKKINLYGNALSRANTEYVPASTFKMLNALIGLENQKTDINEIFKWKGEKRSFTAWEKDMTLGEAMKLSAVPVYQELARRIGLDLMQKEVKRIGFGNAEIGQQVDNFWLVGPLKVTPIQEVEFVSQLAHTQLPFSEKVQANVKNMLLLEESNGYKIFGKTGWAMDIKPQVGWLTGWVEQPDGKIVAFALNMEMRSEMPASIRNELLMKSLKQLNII

`CN(C)C(=O)[C@@H]1C[C@H](SC2=C(C(=O)O)N3C(=O)[C@H](CO)[C@H]3C2)CN1` [MA-1-206] returned a Ki of 26 ± 2 nM.
